The source of these data is ChEMBL document CHEMBL5385961, “In vitro and in vivo evaluation of novel chromeno[2,3-d]pyrimidinones as therapeutic agents for triple negative breast cancer” (RSC Med Chem, 2024).

The structures appear in SMILES notation.

Common to all, as to format: functional
Conditions in all cases: read-out: Activity

The test system of assay [1] is MDA-MB-231. As to the kind of experiment: Cytotoxicity against human MDA-MB-231 cells assessed as cell viability at 10 uM incubated for 72 hrs by SRB assay relative to control.
In assay [2] the test system is MDA-MB-231. Briefly: Cytotoxicity against human MDA-MB-231 cells assessed as cell viability at 30 uM incubated for 72 hrs by SRB assay relative to control.
The subject of assay [3] is Hs-578T. Briefly: Cytotoxicity against human Hs-578T cells assessed as cell viability at 30 uM incubated for 72 hrs by SRB assay relative to control.
In assay [4] the test system is Hs-578T. Briefly: Cytotoxicity against human Hs-578T cells assessed as cell viability at 10 uM incubated for 72 hrs by SRB assay relative to control.
For assay [5], the system named is MCF7. Briefly: Cytotoxicity against human MCF7 cells assessed as cell viability at 30 uM incubated for 72 hrs by SRB assay relative to control.
For assay [6], the system named is MCF7. As to the kind of experiment: Cytotoxicity against human MCF7 cells assessed as cell viability at 10 uM incubated for 72 hrs by SRB assay relative to control.

For `N#CC1=C(/N=C/Nc2ccccc2)Oc2ccc(Br)cc2C1CC(=O)c1ccccc1` (centres undefined), the viability at 10 µM in assay [1] was determined as 98%; in assay [4], 96.1%; in assay [6], 74.6%. In addition, the viability at 30 µM came to 96% in assay [2], 89.9% in assay [3] and 37.9% in assay [5].
Regarding `Cc1cccc2c1Oc1nc(-c3ccccc3)[nH]c(=O)c1C2`, the viability at 10 µM in assay [1] came out at 32.6%; in assay [4], 81.3%; in assay [6], 34.7%. The results for the viability at 30 µM in assay [2], in assay [3] and in assay [5] were 15.9%, 62.1% and 23.8%, respectively.
On to `Cc1ccc2c(c1)Cc1c(nc(-c3ccccc3)[nH]c1=O)O2`, for which the viability at 10 µM was determined as 90.1% in assay [1], 96% in assay [4] and 85.8% in assay [6]. For the same compound, the viability at 30 µM is 65.6% in assay [2], 73.3% in assay [3] and 73.1% in assay [5].
Consider `COc1cccc2c1OC1=NC(c3ccc4c(c3)OCO4)NC(=O)C1=C2` (centres undefined), for which the viability at 10 µM in assay [1] worked out at 88.2%; in assay [4], 100%; in assay [6], 84.9%. In addition, the figures for the viability at 30 µM in assay [2], in assay [3] and in assay [5] were 62.2%, 96.5% and 82.1%, respectively.
Regarding `COc1cccc(-c2nc3c(c(=O)[nH]2)Cc2cccc(OC)c2O3)c1`, the viability at 10 µM was 70.5% in assay [1], 99.3% in assay [4] and 93.6% in assay [6]. Moreover, the viability at 30 µM was 51.6% in assay [2], 85.3% in assay [3] and 71.3% in assay [5].
Consider `COc1ccc2c(c1)C=C1C(=O)NC(c3c(OC)cc(OC)cc3OC)N=C1O2` (centres undefined), for which the viability at 10 µM in assay [1] amounted to 86.3%; in assay [4], 97%; in assay [6], 101%. For the same compound, the viability at 30 µM turned out to be 78.5% in assay [2], 65.5% in assay [3] and 100% in assay [5].
On to `COc1cccc2c1Oc1nc(/C=C/c3ccccc3)[nH]c(=O)c1C2`, for which the viability at 10 µM in assay [1] stood at 99.2%; in assay [4] it was 99.8%; in assay [6], 84.7%. Further, the values for the viability at 30 µM in assay [2], in assay [3] and in assay [5] were 92.5%, 97.9% and 56.7%, respectively.
`O=c1[nH]c(-c2ccccc2)nc2c1Cc1ccccc1O2`: the values for the viability at 10 µM in assay [1], in assay [4] and in assay [6] were 69.3%, 76.3% and 88.5%, respectively. Besides, the viability at 30 µM came to 53.2% in assay [2], 65.4% in assay [3] and 79.2% in assay [5].
Regarding `COc1cccc2c1C(=O)c1c(O)c3c(c(O)c1C2=O)C[C@@](O)(C(=O)CO)C[C@@H]3O[C@H]1C[C@H](N)[C@H](O)[C@H](C)O1` [DOXORUBICIN], the viability at 10 µM in assay [1] came out at 6.72%; in assay [4] it was 8.65%; in assay [6] it was 24.5%. Besides, the figures for the viability at 30 µM in assay [2], in assay [3] and in assay [5] were 5.85%, 7.61% and 28.8%, respectively.
With `COc1cccc2c1Oc1nc(-c3ccco3)[nH]c(=O)c1C2`, the viability at 10 µM in assay [1] amounted to 92.8%; in assay [4], 99.8%; in assay [6], 98.9%. Also, the viability at 30 µM in assay [2] was found to be 85.8%; in assay [3], 90.7%; in assay [5] it was 100%.
For the compound `COc1ccc(OC)c(-c2nc3c(c(=O)[nH]2)Cc2cccc(OC)c2O3)c1`, the viability at 10 µM worked out at 87.1% in assay [1], 72.7% in assay [4] and 77.7% in assay [6]. Further, the viability at 30 µM in assay [2] was 88.4%; in assay [3], 74%; in assay [5] it was 76.6%.
Consider `COc1cccc2c1Oc1nc(-c3cccc(O)c3)[nH]c(=O)c1C2`, for which the viability at 10 µM in assay [1] came out at 102%; in assay [4], 75.9%; in assay [6], 38%. Besides, the viability at 30 µM in assay [2] was found to be 102%; in assay [3], 67.3%; in assay [5], 25.4%.
As for `O=c1[nH]c(-c2ccc3c(c2)OCO3)nc2c1Cc1cc(Br)ccc1O2`, the values for the viability at 10 µM in assay [1], in assay [4] and in assay [6] were 85.3%, 86.1% and 83.4%, respectively. Further, the viability at 30 µM in assay [2] amounted to 77.8%; in assay [3] it was 78.5%; in assay [5] it was 83.1%.
In the case of `COc1cccc2c1Oc1nc(-c3ccc(Br)cc3)[nH]c(=O)c1C2`, the viability at 10 µM in assay [1] stood at 83.7%; in assay [4] it was 97.7%; in assay [6], 83.8%. For the same compound, the viability at 30 µM in assay [2] is 80.4%; in assay [3], 84.4%; in assay [5] it was 75.3%.
